# Like-named read-outs stand apart in the source and are kept apart here.
# How the values were obtained:
# [1] = test system: Caco-2 cell; assay: Caco-2 bidirectional permeability assay; format: in vitro ADME; details: Caco-2
# Procedure: (§1) Cell membrane permeability is an important drug characteristic. Typically, a drug candidate is test in a Caco-2 cell transmembrane permeability assay. Compound 3 was tested in a bidirectional permeability assay, and the results are shown in Table V. The data are consistent with the representative compound having good cellular membrane permeability, and the efflux ratio is consistent with active efflux of the drug from cell. The study was conducted using standard techniques known in the art.
# [2] = Caco-2 bidirectional permeability assay; format: in vitro ADME; details: human
# Procedure: as §1
# [3] = target: BTK (Homo sapiens, UniProt Q06187); assay: Specific kinase IC50 assay; format: biochemical; details: 1 μM ATP, 10-dose, duplicate
# Procedure: In addition, the compound IC50 was determined in six specific kinase assays. The kinases that the compound was assayed against were as follows: BMX/ETK, BTK, EGFR (T790M), ERBB4/HER4, JAK3, and TEC. The assays were carried out in the presence of 1 μM ATP and were conducted in a 10-dose format in duplicate with three-fold serial dilutions starting at 10 μM. The calculated IC50s are shown in Table IX, and representative dose response curves from these assays are shown in FIG. 5 (Panels A: BMX/ETK kinase assay; Panel B: BTK kinase assay; Panel C: EGFR (T790M) kinase assay; Panel D: ERBB4/HER4 kinase assay; Panel E: JAK3 kinase assay; and Panel F: TEC kinase assay). The data in Figure show the individual assay duplicate assay results a line fit to the data; 100% activity is the activity in the […] of test compound. […].
# [4] = Pharmacokinetics in mice; format: in vivo; details: mouse, plasma
# Procedure: The pharmacokinetic behavior of a representative disclosed compound, compound 3 (N-(3-(6-((3-morpholinophenyl)amino)-1H-pyrazolo[3,4-d]pyrimidin-4-yl)phenyl)acrylamide), which corresponds to compound 3 in Table I, was evaluated in mice. As used herein, “test compound” refers to compound 3. The study was carried out using three animals per dosing group. Animals were dosed as follows: a) Group 1 were administered 5 mg/kg of test compound by i.v. administration; b) Group 2 were dosed at 10 mg/kg by oral gavage using the base form of the test compound; and c) Group 3 were dosed at 10 mg/kg by oral gavage using a HCl salt of the test compound. Plasma concentration of the test compound was determined on samples take at the following time points: 0.08, 0.25, 0.50, 1, 2, 4, 8, and 24 hrs. Individual values were within 25% of the mean.
# [5] = Microsomal stability; format: in vitro ADME, rat; details: for Compound Remaining: rat microsomes 0.5 mg protein/mL, 1 μM
# Procedure: Data were also obtained for the stability of Compound 3 when incubated with a microsomal preparation. Drug metabolism can occur, at least in part, in cellular microsomes, and thus the assay assesses the stability of drug to metabolic modification. The concentration of compound 3 was 1 μM in the assay system and the indicated microsomes were present at 0.5 mg total protein per milliliter. The concentration of intact drug was determined at the indicated timepoints using a LC-MS/MS assay. The enzyme activity of the microsomes used in this study were assessed using a positive control, testosterone.
# [6] = po, 10 mg/kg, p.o. (HCl salt), 10 mg/kg oral gavage
# [7] = po, 10 mg/kg, p.o. (base form), 10 mg/kg oral gavage
# Chain of BTK (Q06187 whole entry): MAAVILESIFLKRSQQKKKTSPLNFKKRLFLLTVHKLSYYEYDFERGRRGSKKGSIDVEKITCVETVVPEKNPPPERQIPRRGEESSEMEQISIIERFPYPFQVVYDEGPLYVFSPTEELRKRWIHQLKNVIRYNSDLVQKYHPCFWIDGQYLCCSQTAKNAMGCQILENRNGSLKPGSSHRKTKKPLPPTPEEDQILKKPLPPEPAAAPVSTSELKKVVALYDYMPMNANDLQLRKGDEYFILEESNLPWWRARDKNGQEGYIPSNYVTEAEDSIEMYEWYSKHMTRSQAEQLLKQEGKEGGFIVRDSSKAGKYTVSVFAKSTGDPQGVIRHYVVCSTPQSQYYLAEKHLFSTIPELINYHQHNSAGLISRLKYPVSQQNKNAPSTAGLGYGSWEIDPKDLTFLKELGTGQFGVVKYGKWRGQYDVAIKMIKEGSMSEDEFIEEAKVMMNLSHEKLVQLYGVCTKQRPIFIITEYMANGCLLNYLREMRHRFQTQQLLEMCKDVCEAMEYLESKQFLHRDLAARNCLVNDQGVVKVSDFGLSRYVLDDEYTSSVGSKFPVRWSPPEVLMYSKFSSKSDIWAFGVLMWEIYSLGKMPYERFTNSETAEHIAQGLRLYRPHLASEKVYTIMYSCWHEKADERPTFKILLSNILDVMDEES
compound,measurement,setting,value
"C=CC(=O)Nc1cccc(-c2nc(Nc3cccc(N4CCOCC4)c3)nc3[nH]ncc23)c1 [Compound 3, N-(3-(6-((3-morpholinophenyl)amino)-1H-pyrazolo[3,4-d]pyrimidin-4-yl)phenyl)acrylamide]",Permeability Classification,[1],High
same,Significant Efflux,[1],Yes
same,efflux ratio,[2]; Caco-2,6
same,recovery,"[2]; Caco-2, Caco-2, A-B, read-out: % Recovery A-B",41%
same,recovery,"[2]; Caco-2, Caco-2, B-A, read-out: % Recovery B-A",84%
same,Papp A→B,"[2]; Caco-2, A-B",5.81 ×10⁻⁶ cm/s
same,Papp B→A,"[2]; Caco-2, B-A",34.9 ×10⁻⁶ cm/s
same,IC50,[3],12.3 nM
same,Cmax,"[4]; iv, 5 mg/kg",3520 ng/mL
same,Tmax,"[4]; iv, 5 mg/kg",4.8 min
same,clearance,"[4]; iv, 5 mg/kg",67 mL/min/kg
same,half-life,"[4]; iv, 5 mg/kg",90 min
same,AUC(0-t),"[4]; iv, 5 mg/kg, i.v., 5 mg/kg, read-out: AUC0-4",1180 ng·h/mL
same,AUC(0-t),"[4]; iv, 5 mg/kg, i.v., 5 mg/kg, read-out: AUC0-t",1230 ng·h/mL
same,Vd,"[4]; iv, 5 mg/kg, read-out: Vss",2.6 L/kg
same,Cmax,[4]; [6],465 ng/mL
same,Tmax,[4]; [6],15 min
same,bioavailability,[4]; [6],3%
same,AUC(0-t),"[4]; po, 10 mg/kg, p.o. (HCl salt), 10 mg/kg oral gavage, read-out: AUC0-4",357 ng·h/mL
same,Cmax,[4]; [7],299 ng/mL
same,Tmax,[4]; [7],30 min
same,bioavailability,[4]; [7],2.3%
same,AUC(0-t),"[4]; po, 10 mg/kg, p.o. (base form), 10 mg/kg oral gavage, read-out: AUC0-4",270 ng·h/mL
same,half-life at 1 μM,[5]; rat microsomes,14 min
same,Compound Remaining,[5]; 0 min,100 % of initial amount
same,Compound Remaining,[5]; 10 min,55.2 % of initial amount
same,Compound Remaining,[5]; 20 min,33.6 % of initial amount
same,Compound Remaining,[5]; 30 min,20.5 % of initial amount
same,Compound Remaining,[5]; 60 min,5.13 % of initial amount
same,microsomal CLint at 1 μM,"[5]; rat microsomes, read-out: CLinit (intrinsic clearance)",100 µL/min/mg

# Reference: patent US20150252048A1, “SUBSTITUTED N-(3-PYRIMIDIN-4-YL)PHENYL)ACRYLAMIDE ANALOGS AS TYROSINE RECEPTOR KINASE BTK INHIBITORS” (UNIVERSITY OF UTAH RESEARCH FOUNDATION, priority 2012, published 2015)
